Here are results for three compounds from patent EP0745595A1, “3-(3-Aryloxyphenyl)-1-(substituted methyl)-s-triazine-2,4,6-oxo or thiotrione herbicidal agents” (American Cyanamid Company, priority 1995, dated 1996).

Common to all, as to format: in vivo
Series [1] concerns ORYZA SATIVA, L. TEBONNET
In words: Rice tolerance to post-transplant applications under flooded paddy conditions, ORYSAT (Rice, Tebonnet). The note with it: post-transplant rice, 3-4 weeks after treatment. In a few lines: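 Two ten-day-old Tebonnet rice seedlings transplanted into silt loam, flooded 1.5–3 cm; three days later the water surface treated with compounds in acetone/water at about 0.5, 0.25, 0.125 and 0.063 kg/ha. Visual 0–9 injury rating versus control after 3–4 weeks in greenhouse.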

The next series relates to […], PRESL. Nature of the series: Preemergence weed control under flooded paddy conditions, MOOVA (Monochoria). The settings on record: preemergence, 3-4 weeks after treatment. In a few lines: (§1)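 Seeds or propagules were planted 0.5 cm deep in silt loam, with flood water held at 1.5 to 3 cm. Compound in 50/50 aqueous/acetone was pipetted into the flood water at about 0.5, 0.25, 0.125 and 0.063 kg/ha. Injury was rated visually on a 0-9 scale against a control 3-4 weeks after treatment.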

Series [2] deals with CHENOPODIUM ALBUM, L. Nature of the series: Preemergence herbicidal evaluation, CHEAL (Lambsquarters, Common). The note with it: rated four to five weeks after treatment. In a few lines: (§2)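 Preemergence, greenhouse: seed + potting soil sown on ~1 inch soil in cups; aqueous acetone spray, ~0.125–0.50 kg/ha equivalent; rated 0-9 vs control at 4–5 wk.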
Series [3] relates to ORYZA SATIVA, L. TEBONNET
In words: Preemergence herbicidal evaluation, ORYSAT (Rice, Tebonnet). The settings on record: rated four to five weeks after treatment. From the text:
(§3) Results of herbicide evaluation are expressed on a rating scale (0-9). The scale is based upon a visual observation of plant stand, vigor, malformation, size, chlorosis and overall plant appearance as compared with a control.
(§4) The preemergence herbicidal activity of the test compounds of the present invention is exemplified by the following tests in which the seeds of a variety of monocotyledonous and dicotyledonous plants are separately mixed with potting soil and planted on top of approximately one inch of soil in separate pint cups. […] The treated cups are then placed on greenhouse benches, watered and cared for in accordance with conventional greenhouse procedures. From four to five weeks after treatment, the tests are terminated and each cup is examined and rated according to the rating system provided in Example 40.
(§5) The compounds evaluated are reported by compound number given in Example 40.

In the next series the test system is SAGITTARIA PYGMAEA, L. Nature of the series: Preemergence weed control under flooded paddy conditions, SAGPY (Arrowhead (Pygmaea)). The settings on record: preemergence, 3-4 weeks after treatment. In a few lines:
as §1

Series [4] concerns CYPERUS SEROTINUS, ROTTB. Nature of the series: Preemergence weed control under flooded paddy conditions, CYPSE (Flatsedge). The note with it: preemergence, 3-4 weeks after treatment. In a few lines: as §1
In series [5] the test system is CHENOPODIUM ALBUM, L. Nature of the series: Postemergence herbicidal evaluation, CHEAL (Lambsquarters, Common). In a few lines:
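Seedlings of common lambsquarters (Chenopodium album) were raised in jiffy flats for roughly two weeks, then sprayed postemergence through a nozzle at 40 psi with test compound dispersed in 50/50 acetone/water containing 0.5% TWEEN®20 surfactant. Plants were kept on greenhouse benches under standard care and rated visually on a 0-9 scale versus controls.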

Series [6] relates to AMBROSIA ARTEMISIIFOLIA, L. Nature of the series: Preemergence herbicidal evaluation, AMBEL (Ragweed, Common). The note with it: rated four to five weeks after treatment.
Description: as §3, §4, §5

A further series concerns CASSIA OBTUSIFOLIA, L. In words: Preemergence herbicidal evaluation, CASOB (Sicklepod). The settings on record: rated four to five weeks after treatment. In a few lines: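 Seeds of various monocot and dicot plants, including sicklepod, were each mixed with potting soil and sown on roughly one inch of soil in separate pint cups for preemergence testing. Treated cups were kept on greenhouse benches, watered and maintained conventionally. Four to five weeks after treatment, each cup was visually rated on a 0-9 scale against a control.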

Another series deals with IPOMOEA SPP. In words: Preemergence herbicidal evaluation, IPOSS (Morningglory spp.). The settings on record: rated four to five weeks after treatment.
Description: as §3, §4, §5

Series [7] deals with TRITICUM AESTIVUM, CV. APOLLO. Nature of the series: Preemergence herbicidal evaluation, TRZAWO (Wheat, Winter, CV. APOLLO). The note with it: rated four to five weeks after treatment.
Description: as §3, §4, §5

Another series relates to GALIUM APARINE. Nature of the series: Preemergence herbicidal evaluation, GALAP (Galium). The note with it: rated four to five weeks after treatment. In a few lines: as §2
Series [8] relates to ECHINOCHLOA CRUS-GALLI, (L) BEAU. Nature of the series: Preemergence herbicidal evaluation, ECHCG (Barnyardgrass). The note with it: rated four to five weeks after treatment. In a few lines:
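Barnyardgrass seeds were mixed with potting soil and planted on about one inch of soil in pint cups for preemergence testing. Treated cups were kept on greenhouse benches, watered and maintained by standard greenhouse practice. After four to five weeks, each cup was visually rated on a 0-9 scale against an untreated control.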

Series [9] concerns ABUTILON THEOPHRASTI, MEDIC. Nature of the series: Preemergence herbicidal evaluation, ABUTH (Velvetleaf). The settings on record: rated four to five weeks after treatment.
Description: as §3, §4, §5

On to `COC(=O)Cn1c(=O)n(C)c(=O)n(-c2cc(Oc3cc(Cl)c(Cl)cc3Cl)ccc2[N+](=O)[O-])c1=O` [Compound 31, Methyl tetrahydro-3-methyl-5-[2-nitro-5-(2,4,5-trichlorophenoxy)phenyl]-2,4,6-trioxo-s-triazine-1(2H)-acetate], for which the “Herbicidal effect rating, ORYSAT” value was 0.0 in series [1] (0.063 kg/ha), 0.0 in [1] (0.125 kg/ha), 1.0 in series [1] (0.250 kg/ha) and 2.0 in series [1] (0.500 kg/ha). Also, the “Herbicidal effect rating, MOOVA” value came out at 0.0 in […], PRESL. (0.063 kg/ha) and 0.0 in series […], PRESL. (0.125 kg/ha). Besides, the CHEAL herbicidal rating in the series on CHENOPODIUM ALBUM, L. [2] (Rate 0.125 kg/ha) was determined as 9.0; in the series with CHENOPODIUM ALBUM, L. [2] (Rate 0.250 kg/ha), 9.0; in the series on CHENOPODIUM ALBUM, L. [2] (Rate 0.500 kg/ha), 9.0. Also, the ORYSAT herbicidal rating in [3] (Rate 0.125 kg/ha), in series [3] (Rate 0.250 kg/ha) and in series [3] (Rate 0.500 kg/ha) was 3.0 throughout. The “Herbicidal effect rating, SAGPY” value turned out to be 0.0 in the series with SAGITTARIA PYGMAEA, L. (0.063 kg/ha); 0.0 in the series with SAGITTARIA PYGMAEA, L. (0.125 kg/ha); 0.0 in the series with SAGITTARIA PYGMAEA, L. (0.250 kg/ha); 0.0 in the series with SAGITTARIA PYGMAEA, L. (0.500 kg/ha). Besides, the “Herbicidal effect rating, CYPSE” value in series [4] (0.063 kg/ha), in [4] (0.125 kg/ha), in series [4] (0.250 kg/ha) and in [4] (0.500 kg/ha) was 0.0 each time. In addition, the CHEAL rating in the series on CHENOPODIUM ALBUM, L. [5] (Rate 0.125 kg/ha) came out at 7.0; with CHENOPODIUM ALBUM, L. [5] (Rate 0.250 kg/ha), 7.0; in the series on CHENOPODIUM ALBUM, L. [5] (Rate 0.500 kg/ha), 7.0.
As for `Cn1c(=O)n(CC(=O)OC(C)(C)C)c(=O)n(-c2cc(Oc3ccc(C(F)(F)F)cc3Cl)ccc2Cl)c1=O` [Compound 40, Tert-butyl 3-{[2-chloro-5-(2-chloro-α,α,α-trifluoro-p-tolyl)oxy]phenyl}tetrahydro-5-methyl-2,4,6-trioxo-s-triazine-1(2H)-acetate], the “Herbicidal effect rating, ORYSAT” value is on record as 0.5 in [1] (0.063 kg/ha), 0.5 in series [1] (0.125 kg/ha), 1.5 in series [1] (0.250 kg/ha) and 1.5 in [1] (0.500 kg/ha). Besides, the AMBEL herbicidal rating in [6] (Rate 0.125 kg/ha) and in series [6] (Rate 0.250 kg/ha) was 0.0 throughout. Moreover, the CASOB herbicidal rating with CASSIA OBTUSIFOLIA, L. (Rate 0.125 kg/ha) was determined as 1.0; in the series on CASSIA OBTUSIFOLIA, L. (Rate 0.250 kg/ha) it was 1.0. For the same compound, the “Herbicidal effect rating, SAGPY” value in the series on SAGITTARIA PYGMAEA, L. (0.063 kg/ha) came out at 0.0; with SAGITTARIA PYGMAEA, L. (0.125 kg/ha), 0.0; in the series on SAGITTARIA PYGMAEA, L. (0.250 kg/ha), 0.0; in the series on SAGITTARIA PYGMAEA, L. (0.500 kg/ha) it was 0.0. In addition, the “Herbicidal effect rating, CYPSE” value in [4] (0.063 kg/ha), in [4] (0.125 kg/ha), in series [4] (0.250 kg/ha) and in series [4] (0.500 kg/ha) was 0.0 in each case. The IPOSS herbicidal rating with IPOMOEA SPP. (Rate 0.125 kg/ha) and in the series with IPOMOEA SPP. (Rate 0.250 kg/ha) was 0.5 each time. Further, the TRZAWO herbicidal rating in [7] (Rate 0.125 kg/ha) and in series [7] (Rate 0.250 kg/ha) was 0.0 each time. Also, the GALAP herbicidal rating in the series on GALIUM APARINE (Rate 0.125 kg/ha) and in the series on GALIUM APARINE (Rate 0.250 kg/ha) was 4.5 throughout.
As to `Cn1c(=O)n(CC(=O)OC(C)(C)C)c(=O)n(-c2cc(Oc3c(F)cc(C(F)(F)F)cc3Cl)ccc2F)c1=O` [Compound 41, Tert-butyl 3-{[5-(2-chloro-α,α,α,6-tetra-fluoro-p-tolyl)oxy]-2-fluorophenyl}tetra-hydro-5-methyl-2,4,6-trioxo-s-triazine-1(2H)-acetate], the “Herbicidal effect rating, ORYSAT” value in [1] (0.063 kg/ha), in series [1] (0.125 kg/ha), in series [1] (0.250 kg/ha) and in series [1] (0.500 kg/ha) was 0.0 throughout. For the same compound, the AMBEL herbicidal rating in series [6] (Rate 0.125 kg/ha), in series [6] (Rate 0.250 kg/ha) and in [6] (Rate 0.500 kg/ha) was 0.0 in each case. In addition, the CHEAL herbicidal rating in the series with CHENOPODIUM ALBUM, L. [2] (Rate 0.125 kg/ha) is reported as 9.0; in the series with CHENOPODIUM ALBUM, L. [2] (Rate 0.250 kg/ha) it was 9.0; in the series with CHENOPODIUM ALBUM, L. [2] (Rate 0.500 kg/ha), 9.0. Besides, the ECHCG herbicidal rating in series [8] (Rate 0.125 kg/ha), in series [8] (Rate 0.250 kg/ha) and in series [8] (Rate 0.500 kg/ha) was 0.0 in each case. The “Herbicidal effect rating, SAGPY” value came out at 0.0 in the series with SAGITTARIA PYGMAEA, L. (0.063 kg/ha); 0.0 in the series with SAGITTARIA PYGMAEA, L. (0.125 kg/ha); 0.0 with SAGITTARIA PYGMAEA, L. (0.250 kg/ha); 0.0 in the series on SAGITTARIA PYGMAEA, L. (0.500 kg/ha). Besides, the ABUTH herbicidal rating in series [9] (Rate 0.125 kg/ha), in [9] (Rate 0.250 kg/ha) and in series [9] (Rate 0.500 kg/ha) was 0.0 each time. Moreover, the TRZAWO herbicidal rating in series [7] (Rate 0.125 kg/ha), in series [7] (Rate 0.250 kg/ha) and in [7] (Rate 0.500 kg/ha) was 0.0 each time.
